Experimental data taken from patent US20210071229A1, “FIBRINOGEN TEST” (DSM IP Assets B.V., priority 2018, published 2021).
Values joined by “and” are separate entries in the source; they are usually repeats but may differ in a detail not shown here. Equal values may be shown once. Read-outs that look alike come from different tables or passages of the source.

Tests used:
batroxobin = batroxobin (Bothrops atrox, UniProt P04971); type: biochemical, Bothrops moojeni
control plasma [1] = test system: control plasma
control plasma [2] = experiment: activated Partial Thromboplastin Time (aPTT) clotting test, spiked control plasma, BCS-XP; type: biochemical

Chain of batroxobin (P04971 25-255 limits assumed): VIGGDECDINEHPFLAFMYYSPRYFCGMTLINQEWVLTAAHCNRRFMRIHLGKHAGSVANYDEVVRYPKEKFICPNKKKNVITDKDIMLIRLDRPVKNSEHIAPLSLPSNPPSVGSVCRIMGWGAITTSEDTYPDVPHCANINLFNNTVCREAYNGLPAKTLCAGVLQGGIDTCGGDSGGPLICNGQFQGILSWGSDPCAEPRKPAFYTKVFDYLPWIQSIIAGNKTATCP

Compound: [H]/N=C(/N)c1ccc(NCc2nc3cc(C(=O)N(CCC(=O)O)c4ccccn4)ccc3n2C)cc1 [Dabigatran]
- effect on Km of batroxobin-Pefachrome TH substrate (batroxobin; 31-500 ng/mL): not significantly affected

Compound: hirudin
- interference in batroxobin-Pefachrome TH reaction (batroxobin): failed to see significant interference

Compound: hydroxyethyl starch [HES]
- interference in batroxobin-Pefachrome TH reaction (batroxobin): failed to see significant interference

Compound: NCCCCCC(=O)O [6-aminocaproic acid]
- effect on enzyme activity of batroxobin vs untreated control (batroxobin): did not significantly influence the activity
- predicted Vmax and Km vs untreated control (batroxobin): not significantly different

Compound: O=C(NC[C@H]1CN(c2ccc(N3CCOCC3=O)cc2)C(=O)O1)c1ccc(Cl)s1 [Rivaroxaban]
- effect on Vmax of batroxobin-Pefachrome TH substrate (batroxobin): very slight reduction
- effect on enzyme activity of batroxobin (batroxobin): did not significantly suppress
- effect on Km of batroxobin-Pefachrome TH substrate (batroxobin; 38-600 ng/mL): not significantly affected
- PT-test CT (control plasma [1]; 38 ng/ml in plasma): 10.74 s and 10.61 s
- PT-test Mean (control plasma [1]; 38 ng/ml in plasma): 10.68 s
- PT-test delay (control plasma [1]; 38 ng/ml in plasma): 6%
- PT-test CT (control plasma [1]; 600 ng/ml in plasma): 19.42 s and 19.32 s
- PT-test Mean (control plasma [1]; 600 ng/ml in plasma): 19.37 s
- PT-test delay (control plasma [1]; 600 ng/ml in plasma): 92%
- aPTT-test CT (control plasma [2]; 38 ng/ml in plasma): 39.46 s and 39.44 s
- aPTT-test Mean (control plasma [2]; 38 ng/ml in plasma): 39.45 s
- aPTT-test delay (control plasma [2]; 38 ng/ml in plasma): 23%
- aPTT-test CT (control plasma [2]; 600 ng/ml in plasma): 80.73 s and 80.07 s
- aPTT-test Mean (control plasma [2]; 600 ng/ml in plasma): 80.40 s
- aPTT-test delay (control plasma [2]; 600 ng/ml in plasma): 150%

Compound: aprotinin
- effect on enzyme activity of batroxobin vs untreated control (batroxobin): did not significantly influence the activity
- predicted Vmax and Km vs untreated control (batroxobin): not significantly different

Compound: CC1CNc2c(cccc2S(=O)(=O)N[C@@H](CCCNC(=N)N)C(=O)N2CC[C@@H](C)C[C@@H]2C(=O)O)C1 (some centres unmarked) [Argatroban]
- effect on Vmax of batroxobin-Pefachrome TH substrate (batroxobin): very slight reduction
- effect on enzyme activity of batroxobin (batroxobin): did not significantly suppress
- effect on Km of batroxobin-Pefachrome TH substrate (batroxobin; 0.13-2.0 μg/mL): not significantly affected
- PT-test CT (control plasma [1]; 0.13 μg/ml in plasma): 10.18 s and 10.21 s
- PT-test Mean (control plasma [1]; 0.13 μg/ml in plasma): 10.20 s
- PT-test delay (control plasma [1]; 0.13 μg/ml in plasma): 1%
- PT-test CT (control plasma [1]; 2.0 μg/ml in plasma): 12.26 s and 12.24 s
- PT-test Mean (control plasma [1]; 2.0 μg/ml in plasma): 12.25 s
- PT-test delay (control plasma [1]; 2.0 μg/ml in plasma): 22%
- aPTT-test CT (control plasma [2]; 0.13 μg/ml in plasma): 34.62 s
- aPTT-test Mean (control plasma [2]; 0.13 μg/ml in plasma): 34.62 s
- aPTT-test delay (control plasma [2]; 0.13 μg/ml in plasma): 8%
- aPTT-test CT (control plasma [2]; 2.0 μg/ml in plasma): 55.77 s and 55.46 s
- aPTT-test Mean (control plasma [2]; 2.0 μg/ml in plasma): 55.62 s
- aPTT-test delay (control plasma [2]; 2.0 μg/ml in plasma): 73%

Compound: O=C(O)CN(CCN(CC(=O)O)CC(=O)O)CC(=O)O [EDTA]
- interference in batroxobin-Pefachrome TH reaction (batroxobin): failed to see significant interference
